These are literature values, as cited in patent US20050014827A1, “Synergistic medicament containing flavoring agents and having an antagonistic regenerative and/or protagonist decontamination effect” (priority 2000, published 2005).

For one data set, the system named is reverse transcriptase. Conditions: 19% ethanol.
In the next data set the test system is HTLV-III/LAV/HIV. The following applies: 50% ethanol; 23° C.; 10 min; with and without additional protein loading.
The next data set relates to HBV. Conditions: 70% isopropyl alcohol; 10 min; room temperature; serum dried onto plastic surface.

In the case of `CCO` [ethanol], in the data set with reverse transcriptase, the “detection of viral reverse transcriptase” value is “can no longer be detected”. For the same molecule, the “infectiousness of the virus” value with HTLV-III/LAV/HIV was “destroys the infectiousness”. Turning to `CC(C)O` [isopropyl alcohol], in the data set on HBV, the “inactivation of 10^6 HBV doses infectious towards chimpanzees” value is reported as “inactivated”.
